Experimental data taken from the CheMixHub viscosity set.

Test: xn = mol fraction of the nth substance listed

CCC(=O)O.OCCNCCO + CCO
303.15 K, 101 kPa
Settings | viscosity [mPa·s]
x1 = 0.5084 | 116.5
x1 = 0.6965 | 177.5
x1 = 0.804 | 226.5

CCOCCO + CCO
298.15 K, 101 kPa
Settings | viscosity [mPa·s]
x1 = 0.0538 | 1.147
x1 = 0.1133 | 1.207
x1 = 0.1798 | 1.272
x1 = 0.2542 | 1.341
x1 = 0.3383 | 1.416
x1 = 0.4341 | 1.497
x1 = 0.544 | 1.581
x1 = 0.6716 | 1.669
x1 = 0.8215 | 1.761

CNC(C)=O + CCO
303.15 K, 101 kPa
Settings | viscosity [mPa·s]
x1 = 0.1049 | 1.108
x1 = 0.2021 | 1.237
x1 = 0.3699 | 1.52
x1 = 0.4024 | 1.584
x1 = 0.5109 | 1.833
x1 = 0.6023 | 2.084
x1 = 0.6979 | 2.402
x1 = 0.7994 | 2.792
x1 = 0.895 | 3.236

Oc1ccc(Cl)cc1 + CCO
Settings | viscosity [mPa·s]
298.15 K, 101 kPa, x1 = 0.5 | 1.454

Cc1cccc(Cl)c1 + CCOC(=O)c1ccccc1
viscosity [mPa·s], 101 kPa
Settings | 303.15 K | 313.15 K
x2 = 0.0789 | 0.775 | 0.672
x2 = 0.1831 | 0.822 | 0.711
x2 = 0.2348 | 0.851 | 0.734
x2 = 0.3353 | 0.913 | 0.782
x2 = 0.4121 | 0.973 | 0.827
x2 = 0.4871 | 1.043 | 0.881
x2 = 0.5629 | 1.122 | 0.938
x2 = 0.6364 | 1.212 | 1.006
x2 = 0.711 | 1.312 | 1.084
x2 = 0.7831 | 1.419 | 1.166
x2 = 0.8563 | 1.54 | 1.257
x2 = 0.9045 | 1.625 | 1.321
x2 = 0.9524 | 1.714 | 1.388

CC(C)CCO + CCOCCO
313.15 K, 101 kPa
Settings | viscosity [mPa·s]
x1 = 0.102 | 1.385
x1 = 0.2036 | 1.425
x1 = 0.8035 | 1.945

CNCCO + CCOCCO
viscosity [mPa·s], 101.3 kPa
Settings | 293.15 K | 298.15 K | 303.15 K | 308.15 K | 313.15 K | 318.15 K | 323.15 K
x1 = 0.118 | 2.547 | 2.249 | 1.998 | 1.785 | 1.604 | 1.448 | 1.313
x1 = 0.34 | 3.887 | 3.356 | 2.92 | 2.56 | 2.26 | 2.006 | 1.791
x1 = 0.444 | 4.708 | 4.021 | 3.464 | 3.01 | 2.634 | 2.32 | 2.057
x1 = 0.545 | 5.72 | 4.828 | 4.116 | 3.541 | 3.071 | 2.684 | 2.362
x1 = 0.737 | 8.19 | 6.751 | 5.636 | 4.76 | 4.058 | 3.492 | 3.03
x1 = 0.915 | 11.49 | 9.252 | 7.565 | 6.267 | 5.255 | 4.453 | 3.812

CCOCCO + CCc1ccccc1
viscosity [mPa·s]
Settings | 298.15 K | 308.15 K
101 kPa, x1 = 0.0573 | 0.658 | 0.557
101 kPa, x1 = 0.1487 | 0.696 | 0.597
101 kPa, x1 = 0.2498 | 0.749 | 0.648
101 kPa, x1 = 0.3527 | 0.817 | 0.708
101 kPa, x1 = 0.4489 | 0.895 | 0.773
101 kPa, x1 = 0.4998 | 0.944 | 0.812
101 kPa, x1 = 0.5485 | 0.995 | 0.852
101 kPa, x1 = 0.6501 | 1.121 | 0.945
101 kPa, x1 = 0.7484 | 1.273 | 1.05
101 kPa, x1 = 0.8508 | 1.469 | 1.178
101 kPa, x1 = 0.9547 | 1.721 | 1.331
101.33 kPa, x2 = 0.0993 | 1.589 | –
101.33 kPa, x2 = 0.1968 | 1.378 | –
101.33 kPa, x2 = 0.293 | 1.22 | –
101.33 kPa, x2 = 0.4069 | 1.055 | –
101.33 kPa, x2 = 0.5133 | 0.929 | –
101.33 kPa, x2 = 0.6286 | 0.822 | –
101.33 kPa, x2 = 0.7484 | 0.736 | –
101.33 kPa, x2 = 0.8672 | 0.677 | –

CC(C)CCO + CN1CCCC1=O
298.15 K, 101 kPa
Settings | viscosity [mPa·s]
x2 = 0.0595 | 3.229
x2 = 0.1189 | 2.874
x2 = 0.1501 | 2.732
x2 = 0.2008 | 2.549
x2 = 0.2536 | 2.402
x2 = 0.2994 | 2.298
x2 = 0.3506 | 2.205
x2 = 0.4002 | 2.132
x2 = 0.4519 | 2.06
x2 = 0.5025 | 2.015
x2 = 0.5513 | 1.97
x2 = 0.6039 | 1.926
x2 = 0.6515 | 1.889
x2 = 0.7026 | 1.855
x2 = 0.7505 | 1.823
x2 = 0.8015 | 1.791
x2 = 0.8546 | 1.763
x2 = 0.9046 | 1.739
x2 = 0.9562 | 1.715

CC(C)CCO + CN(C)C=O
Settings | viscosity [mPa·s]
298.15 K, 101 kPa, x2 = 0.5467 | 1.634

CCn1cc[n+](C)c1.[Cl-] + CN(C)C=O
308.15 K, 101 kPa
Settings | viscosity [mPa·s]
x1 = 0.0524 | 1.045
x1 = 0.0867 | 1.355
x1 = 0.1232 | 1.705

CCOCCO + CO
298.15 K, 101 kPa
Settings | viscosity [mPa·s]
x1 = 0.038 | 0.6216
x1 = 0.0816 | 0.7062
x1 = 0.1322 | 0.7916
x1 = 0.1916 | 0.8844
x1 = 0.2623 | 0.9885
x1 = 0.3478 | 1.114
x1 = 0.4534 | 1.255
x1 = 0.5871 | 1.422
x1 = 0.7619 | 1.625

CNC(C)=O + CO
303.15 K, 101 kPa
Settings | viscosity [mPa·s]
x1 = 0.0999 | 0.644
x1 = 0.2019 | 0.798
x1 = 0.3029 | 0.98
x1 = 0.3939 | 1.175
x1 = 0.504 | 1.457
x1 = 0.605 | 1.778
x1 = 0.6998 | 2.134
x1 = 0.7934 | 2.561
x1 = 0.8995 | 3.14

CC(C)CCO + COCCO
303.15 K, 101.3 kPa
Settings | viscosity [mPa·s]
x2 = 0.1536 | 2.477
x2 = 0.2181 | 2.305
x2 = 0.3068 | 2.095
x2 = 0.3756 | 1.955
x2 = 0.4802 | 1.772
x2 = 0.6881 | 1.512
x2 = 0.7438 | 1.47
x2 = 0.8293 | 1.413
x2 = 0.9356 | 1.38

CNCCO + COCCO
viscosity [mPa·s], 101.3 kPa
Settings | 293.15 K | 298.15 K | 303.15 K | 308.15 K | 313.15 K | 318.15 K | 323.15 K
x1 = 0.101 | 2.086 | 1.866 | 1.677 | 1.516 | 1.375 | 1.254 | 1.147
x1 = 0.303 | 3.283 | 2.869 | 2.523 | 2.234 | 1.988 | 1.78 | 1.601
x1 = 0.403 | 3.985 | 3.444 | 3 | 2.632 | 2.324 | 2.064 | 1.843
x1 = 0.503 | 4.964 | 4.234 | 3.644 | 3.163 | 2.766 | 2.435 | 2.156
x1 = 0.703 | 7.364 | 6.129 | 5.157 | 4.384 | 3.762 | 3.256 | 2.839
x1 = 0.901 | 10.98 | 8.877 | 7.286 | 6.054 | 5.088 | 4.323 | 3.709
